The results in this text go back to ChEMBL document CHEMBL1201862, “PubChem BioAssay data set” (2004).

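Grown in 96-well plates, cells were treated for 48 hours with each compound at five concentrations. Insufficient inhibition: endpoint recorded as highest concentration tested. GI50 is the concentration that inhibits growth by half.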 Activity calls are given as the source filed them. Rule as the data show it: active = GI50 up to about 1.1 µM and inactive = higher.

Among the test systems are BT-549; DU-145; EKVX; HL-60; HOP-92; HT-29; Hs-578T; IGROV-1; KM12; MCF7; MDA-MB-435; NCI-H460; NCI-H522; NCI/ADR-RES; SF-295; SN12C; SNB-75; TK-10; U-251.
What all share (test): NCI tumour cell line growth inhibition, 48 h

For the compound `C[n+]1cn(C2=C([N-]S(=O)(=O)c3ccccc3)C(=O)c3ccccc3C2=O)c2ccccc21`, the GI50 with BT-549 is 20.9 µM (inactive); in the assay with DU-145 it was 52.7 µM (inactive); in the assay with EKVX it was > 100 µM (inactive); in the assay on HL-60, 13 µM (inactive); with HOP-92, 42.1 µM (inactive); with HT-29, 6.67 µM (inactive). In addition, the GI50 in the assay with Hs-578T is 41.9 µM (inactive); in the assay on IGROV-1 it was 17.3 µM (inactive); in the assay on KM12, 15.9 µM (inactive); with MCF7 it was 22.1 µM (inactive); in the assay on MDA-MB-435, 2.79 µM (inactive); in the assay on NCI-H460, 16.8 µM (inactive). The GI50 with NCI-H522 was 11.9 µM (inactive); in the assay on NCI/ADR-RES, > 100 µM (inactive); in the assay with SF-295 it was 61.4 µM (inactive); in the assay with SN12C, 31.3 µM (inactive); in the assay with SNB-75 it was 24.3 µM (inactive); in the assay with TK-10 it was 20.8 µM (inactive). Besides, the GI50 in the assay with U-251 was 19.3 µM (inactive).

As for `CC1(C)OCC2OC3(c4nc(C#N)c(N)o4)OC(C)(C)OC3C2O1` (stereo not given), the GI50 with BT-549, with DU-145, with EKVX, in the assay with HL-60, in the assay on HOP-92 and in the assay on HT-29 was > 100 µM (inactive) throughout. For the same compound, the GI50 in the assay with Hs-578T, in the assay with IGROV-1, in the assay on KM12, in the assay on MCF7, with MDA-MB-435 and in the assay with NCI-H460 was > 100 µM (inactive) throughout. Moreover, the GI50 with NCI-H522, in the assay with NCI/ADR-RES, in the assay with SF-295, with SN12C, with SNB-75 and in the assay with TK-10 was > 100 µM (inactive) throughout. Also, in the assay with U-251, the GI50 was > 100 µM (inactive).

Take `O=C(O)CN(CC(=O)O)C1CCCCC1N1CC(=O)OC(=O)C1` (stereo not given): the GI50 was > 100 µM (inactive) in the assay with BT-549; > 100 µM (inactive) in the assay on DU-145; > 100 µM (inactive) with EKVX; > 100 µM (inactive) with HL-60; > 100 µM (inactive) in the assay with HOP-92; 38.4 µM (inactive) in the assay on HT-29. In addition, the GI50 in the assay on Hs-578T is 47.1 µM (inactive); with IGROV-1 it was 49.1 µM (inactive); in the assay with KM12, > 100 µM (inactive); in the assay with MCF7, 69.3 µM (inactive); in the assay on MDA-MB-435, > 100 µM (inactive); in the assay on NCI-H460 it was > 100 µM (inactive). Further, the GI50 in the assay with NCI-H522 was > 100 µM (inactive); in the assay with NCI/ADR-RES it was > 100 µM (inactive); with SF-295, > 100 µM (inactive); in the assay with SN12C it was > 100 µM (inactive); with SNB-75, 17.2 µM (inactive); in the assay with TK-10, > 100 µM (inactive). The GI50 in the assay with U-251 is 43.4 µM (inactive).

Consider `CN1C(=O)C(O)CC1c1ccc(C(F)(F)F)cc1` (stereo not given), for which the GI50 in the assay on BT-549, in the assay with DU-145, in the assay with EKVX, in the assay on HL-60, with HOP-92 and in the assay on HT-29 was > 100 µM (inactive) in each case. Moreover, the GI50 in the assay on Hs-578T, in the assay with IGROV-1, with KM12, in the assay with MCF7, in the assay with MDA-MB-435 and in the assay on NCI-H460 was > 100 µM (inactive) throughout. For the same compound, the GI50 with NCI-H522, in the assay with NCI/ADR-RES, in the assay on SF-295, in the assay on SN12C, in the assay with SNB-75 and in the assay with TK-10 was > 100 µM (inactive) each time. In the assay on U-251, the GI50 was > 100 µM (inactive).

On to `O=c1[nH]nc(-c2ccccc2)n1/N=C/c1cccnc1`, for which the GI50 was 39.2 µM (inactive) in the assay with BT-549; 78.5 µM (inactive) in the assay with DU-145; 71.1 µM (inactive) in the assay on EKVX; 50.2 µM (inactive) with HL-60; 61.9 µM (inactive) in the assay on HOP-92; 93.1 µM (inactive) in the assay with HT-29. For the same compound, the GI50 is 37.5 µM (inactive) with Hs-578T; > 100 µM (inactive) in the assay on IGROV-1; 23.4 µM (inactive) with KM12; 47.1 µM (inactive) in the assay on MCF7; 64.7 µM (inactive) in the assay on MDA-MB-435; 43.8 µM (inactive) with NCI-H460. Moreover, the GI50 with NCI-H522 was 61.8 µM (inactive); with NCI/ADR-RES, 69.8 µM (inactive); with SF-295, > 100 µM (inactive); with SN12C, 65 µM (inactive); in the assay with SNB-75, 50.6 µM (inactive); with TK-10 it was > 100 µM (inactive). Besides, the GI50 with U-251 is 76.4 µM (inactive).

`COc1cc(Br)cc2nc(-c3cccs3)oc12`: the GI50 with BT-549 is > 67.8 µM (inactive); in the assay on DU-145 it was > 100 µM (inactive); with EKVX it was > 61.9 µM (inactive); in the assay on HL-60, > 100 µM (inactive); with HOP-92, > 63.5 µM (inactive); in the assay with HT-29 it was > 100 µM (inactive). Moreover, the GI50 is 31.3 µM (inactive) with Hs-578T; > 43.2 µM (inactive) with IGROV-1; > 100 µM (inactive) in the assay with KM12; 2.3 µM (inactive) in the assay with MCF7; > 100 µM (inactive) in the assay on MDA-MB-435; > 100 µM (inactive) in the assay with NCI-H460. The GI50 with NCI-H522 was 99.8 µM (inactive); in the assay with NCI/ADR-RES it was > 100 µM (inactive); in the assay with SF-295, 55.7 µM (inactive); in the assay with SN12C, > 100 µM (inactive); in the assay on SNB-75, > 51.3 µM (inactive); in the assay with TK-10 it was 31.8 µM (inactive). The GI50 in the assay with U-251 was 42.1 µM (inactive).

On to `CC(=O)NNc1nc(C)c(C(/C=C/c2ccccc2O)=N/NC(=O)c2ccncc2)s1`, for which the GI50 in the assay on BT-549, in the assay with DU-145, with EKVX, with HL-60, with HOP-92 and in the assay on HT-29 was > 100 µM (inactive) throughout. Also, the GI50 in the assay with Hs-578T, with IGROV-1, in the assay on KM12, in the assay with MCF7, in the assay with MDA-MB-435 and in the assay with NCI-H460 was > 100 µM (inactive) each time. Moreover, the GI50 in the assay with NCI-H522, with NCI/ADR-RES, in the assay on SF-295, in the assay with SN12C, in the assay on SNB-75 and in the assay on TK-10 was > 100 µM (inactive) each time. Also, the GI50 with U-251 is > 100 µM (inactive).

For the compound `N#C/C(=C\c1ccc(Cl)cc1)c1nc(-c2cc3ccccc3oc2=O)cs1`, the GI50 was 14.9 µM (inactive) in the assay on BT-549; 48.5 µM (inactive) in the assay on DU-145; > 100 µM (inactive) with EKVX; > 100 µM (inactive) with HL-60; 15.7 µM (inactive) in the assay on HOP-92; > 100 µM (inactive) in the assay on HT-29. The GI50 in the assay on Hs-578T was 8.87 µM (inactive); in the assay on IGROV-1, > 100 µM (inactive); in the assay on KM12 it was 74.1 µM (inactive); in the assay on MCF7 it was > 100 µM (inactive); with MDA-MB-435, > 100 µM (inactive); in the assay with NCI-H460 it was 42.6 µM (inactive). Besides, the GI50 in the assay on NCI-H522 was 15.6 µM (inactive); with NCI/ADR-RES it was 39.6 µM (inactive); in the assay with SF-295, 44.4 µM (inactive); in the assay with SN12C it was 70.3 µM (inactive); in the assay on SNB-75, 26.9 µM (inactive); with TK-10, 26.9 µM (inactive). Besides, the GI50 in the assay with U-251 was 30.8 µM (inactive).

Regarding `CC(C)(C)C1=CC(=CC=C2C=CN(CCCCCCCCCCCO)C=C2)C=C(C(C)(C)C)C1=O`, the GI50 is 2.12 µM (inactive) with BT-549; 2.88 µM (inactive) in the assay with DU-145; 1.96 µM (inactive) with EKVX; 1.72 µM (inactive) with HL-60; 1.83 µM (inactive) in the assay on HOP-92; 3.37 µM (inactive) in the assay with HT-29. Besides, the GI50 with Hs-578T was 1.87 µM (inactive); in the assay on IGROV-1, 0.815 µM (active); with KM12, 1.83 µM (inactive); in the assay on MCF7, 0.796 µM (active); with MDA-MB-435 it was 1.7 µM (inactive); in the assay on NCI-H460 it was 2.01 µM (inactive). Moreover, the GI50 with NCI-H522 was 0.453 µM (active); in the assay with NCI/ADR-RES, 2.96 µM (inactive); with SF-295, 1.38 µM (inactive); with SN12C it was 1.25 µM (inactive); with SNB-75, 1.82 µM (inactive); in the assay with TK-10, 1.5 µM (inactive). Also, the GI50 with U-251 was 0.782 µM (active).

On to `C=CCN1C(=O)/C(=C/c2ccc(Cl)cc2)N=C1SC/C=C/C`, for which the GI50 in the assay with BT-549 is 33.9 µM (inactive); in the assay on DU-145, 60.8 µM (inactive); with EKVX, 26.4 µM (inactive); with HL-60, 21.7 µM (inactive); in the assay on HOP-92, 24.2 µM (inactive); in the assay on HT-29 it was 30.9 µM (inactive). For the same compound, the GI50 in the assay with Hs-578T was 37.7 µM (inactive); with IGROV-1 it was 65.5 µM (inactive); with KM12, 32.3 µM (inactive); with MCF7 it was 26.6 µM (inactive); with MDA-MB-435, 33.6 µM (inactive); in the assay on NCI-H460, 62.4 µM (inactive). Moreover, the GI50 was 28.4 µM (inactive) in the assay with NCI-H522; 35.2 µM (inactive) in the assay on NCI/ADR-RES; 46.9 µM (inactive) in the assay on SF-295; 21.7 µM (inactive) with SN12C; 75.7 µM (inactive) in the assay with SNB-75; > 100 µM (inactive) in the assay on TK-10. Further, the GI50 in the assay with U-251 was 27.4 µM (inactive).
